Experiment: Solubility in hexane (oil solubility)
Type: physicochemical
Conditions: at 30° C.
Description: However, the solubility in triglyceride of the compound varies depending upon constitutional fatty acids of the triglyceride. Therefore, in the present invention, the oil insolubility and oil solubility of the compound is defined by a solubility thereof in hexane.

| Compound | Oil solubility class (solubility in hexane) | Solubility in hexane |
| --- | --- | --- |
| tocopherol [Vitamin E (tocopherol)] | Oil-soluble (oil-soluble antioxidant having a solubility in 1 L of hexane of not less than 50 g as measured at 30° C.) | >500 mg/mL |

Experiment: Measurement of dynamic hydration number (relaxation time T1)
Type: physicochemical
Conditions: at 25° C., in water
Description: First, the concept of the “dynamic hydration number” used in the present invention is explained. It is considered that the initial reaction of deterioration is caused at an “interface”, i.e., any of interfaces between gas and liquid, between liquid and solid and between liquid and liquid. In the case of almost all of foods, it is considered that the initial reaction of deterioration thereof is caused at an interface between oil and water. Here, if consideration is mainly made on the case where a configuration of the food is an aqueous system, water is generally classified into two types, i.e., liberated water and combined water. It is considered that among these waters, the liberated water frequently constitutes a factor relating to the initial reaction of deterioration.
The control of the liberated water can be realized by constraining a free motion of water molecules. The “dynamic hydration number” of the compound is an index showing a degree of constraint of free motion of water when the compound is dissolved in water. […] The dynamic hydration number of the compound may be readily measured, for example, by the following method.
25.0 mg of p-hydroxybenzoic acid was dissolved in pure water, and pure water was further added the resultant solution to obtain 50 mL of a solution (blank). The blank was added to samples used in amounts of 1.008 g and 1.512 g, respectively, to prepare sample solutions 1 and 2 having total weights of 4.013 g and 3.001 g, respectively. Using a spectrophotometer “Inova 500” manufactured by Varian Corp., the relaxation time (T1) of the respective sample solutions was measured at 25° C. to determine a dynamic hydration number thereof.

| Compound | Dynamic hydration number (nDHN) |
| --- | --- |
| O=C(CO)[C@@H](O)[C@H](O)[C@H](O)CO [Fructose] | 16.5 |
| NCCCC[C@H](N)C(=O)O [Lysine] | 3.0 |
| OC[C@H]1O[C@@](CO)(O[C@H]2O[C@H](CO)[C@@H](O)[C@H](O)[C@H]2O)[C@@H](O)[C@@H]1O [Sucrose] | 15.0 |
| CC(C)[C@H](N)C(=O)O [Valine] | 21.0 |
| O=C[C@H](O)[C@@H](O)[C@H](O)CO [Xylose] | 15.5 |
| Maltotriol | 211 |
| Maltotriose | 204 |

From patent publication US20090065745A1, “ANTI-DEGRADATION AGENT” (priority 2005, published 2009)
